Measured values published in PMC8694140, “Synthesis and photobiological applications of naphthalimide–benzothiazole conjugates: cytotoxicity and topoisomerase IIα inhibition” (RSC Advances, 2021).

Tests used:
[1] = target: T1, human serum albumin (HSA) (Homo sapiens, UniProt P02768); assay: UV-vis absorption titration of HSA (Benesi–Hildebrand); type: binding; conditions: HSA 10 μM; for enhancement in absorbance of HSA at 280 nm: compound up to 7 μM; for Kd: UV-vis, phosphate buffer pH 7.4, 298 K, read-out: binding constant compound–HSA (Benesi–Hildebrand) (converted)
Procedure: To check the interactions between HSA and compounds, UV-vis absorption spectra of HSA (10 μM) were recorded in the absence and incremental additions of compounds 12 and 13 (7 μM). Noteworthy, enhancement in absorbance of HSA at 280 nm (57% for compound 12 and 51% for compound 13) on increasing concentrations of compounds indicated perturbations in the microenvironment of protein's chromophores as a result of interaction between HSA and compounds along with the development of new band at 348 nm (Fig. 4). Increasing the concentration of compounds also produces an enhancement in absorbance value at 348 nm. The binding constants for the compound–HSA system were calculated by Benesi–Hildebrand eqn (2)[32] as 1.75 × 10^5 M^−1 for compound 12 and 1.88 × 10^5 M^−1 for compound 13 (Fig. S57 ^†). These strong binding affinities are favorable for the adequate transportation of these compounds to their target sites.
To record the absorption spectra of HSA, a fixed amount of HSA (10 μM) was titrated with the increasing concentrations of compounds 12 and 13 (7 μM) in the phosphate buffer of pH 7.4 at 298 K. The phosphate buffer was used as a blank solution for baseline corrections. The absorption spectra were recorded in the range of 200–800 nm. […] To calculate the Kb value, the ratio of intercept to the slope was used as A0/(A − A0) versus 1/[compound] plots.

[2] = target: T1, human serum albumin (HSA); assay: Synchronous fluorescence spectroscopy of HSA; type: binding; conditions: Δλ = 15 nm, tyrosine residue
Description: Synchronous fluorescence spectroscopy (SFS) is commonly used to evaluate the effect of ligand binding on the microenvironment of protein and its amino acids. It is usually observed that a change in polarity of the chromophore of protein causes deviation in the excitation wavelength of a particular amino acid residue.[48,49] This deviation can provide information about the change in confirmation of HSA on the binding of ligand. The SFS of HSA was noted using a fixed difference in wavelengths (Δλ) of 15 nm and 60 nm of synchronized recording of excitation and emission monochromators, which are characteristics of tyrosine and tryptophan amino acid residues, respectively.[50,51] […] The addition of compounds 12 and 13 produced a slight blue shift of about 4 nm at Δλ = 15 nm, corresponding to a tyrosine residue.
The synchronous fluorescence experiment of HSA was performed at a fixed amount of HSA and increasing concentrations of compounds 12 and 13. The spectra were recorded by taking the difference between the wavelengths of excitation and emission (Δλ = λemi − λexc) at 15 nm and 60 nm.

[3] = test system: MCF7 (breast) human cancer cell line; assay: MTT cytotoxicity assay, MCF7; type: cell-based; conditions: Homo sapiens, MCF7, 48 h
Procedure: Human malignant cell lines, i.e., MCF7 (breast), HeLa (cervix), and A549 (lung), as well as non-cancerous human cell line Hek293 (kidney), were cultured using the Ham's media or DMEM having 10% FBS, […] streptomycin, 100 U ml^−1 penicillin, and 50 mM glutamine. For seeding of cells, 96 well plates were used, maintaining the density of […] cells per well with the help of DMEM as a media having 10% FBS cells. Then, seeded cells were incubated in an incubator having a 5% CO2 supply at 37 °C. Compounds were added to the wells at 1, 10, and 100 μM concentrations, and cells were incubated for 48 h at 37 °C and then added 10 μl of MTT to each well prepared from 5 mg ml^−1 stock solution using 1 × PBS buffer and were incubated for 4 h at 37 °C in the dark. DMSO (100 μl) was used to dissolve the formazan crystals. To determine the concentration of formazan, the crystal absorbance difference was recorded at 570 nm. The percentage of relative cell toxicity was calculated by using the following eqn (1):1 [drawing 1]

[4] = target: T1, human serum albumin (HSA); assay: HSA fluorescence quenching (Stern–Volmer, modified Stern–Volmer, van't Hoff); type: binding; conditions: for Kd: read-out: K b (binding constant, modified Stern–Volmer) (converted); for quenching of emission of HSA at 347 nm: HSA 10 μM, compound up to 33 μM, λex 280 nm; for ΔH of HSA binding / ΔS of HSA binding: van't Hoff plot, 298–318 K
Procedure: The binding of compounds to HSA can affect the fluorescence of these fluorophores.[34–36] […] Incremental addition of compounds 12 and 13 (33 μM) led to good quenching (90–95%) of emission of HSA at 347 nm (Fig. 5, S58, and S59 ^†), which indeed indicated the binding of compounds to HSA. Fluorescence quenching data have been analyzed using the Stern–Volmer equation eqn (3)[38] at three different temperatures, i.e., 298 K, […], and 318 K, where Stern–Volmer plots were obtained (Fig. S60 and S61 ^†). Good linearity of plots was observed having a correlation coefficient (R) ≥ 0.9396 throughout all the experiments. The values of the Stern–Volmer quenching constant (KSV), a measure of fluorescence quenching efficiency of the analyte, were calculated from these plots and are reported in Table 2. The fluorescence quenching mechanism, whether dynamic or static quenching, can be investigated using the dependency of KSV values on temperature. […] Thus, the detected quenching in fluorescence of HSA on the addition of compounds 12 and 13 appears as a result of complex formation between compound and HSA. […] Thus, in the present study, the static quenching phenomenon has occurred in the quenching process for represented HSA–compound systems.
To record the emission spectra, a fixed amount of HSA (10 μM) was titrated with increasing concentration of compounds 12 and 13 (33 μM) in phosphate buffer of pH 7.4 at 298 K, 308 K, and 318 K. All spectra were recorded in the range of 200–800 nm at excitation wavelength 280 nm and a constant slit width was used for excitation and emission throughout the experiments.
To determine the quenching constant, following Stern–Volmer eqn (3) was used.3 [drawing 3] where, F0 and F denote the emission intensity of HSA in free form and the presence of compounds 12 and 13, respectively. The plots of F0/F versus [compound] were used to determine the Stern–Volmer quenching constants (KSV) and bimolecular quenching constants (Kq).
Further to determine the binding constants (Kb) and the average number of binding sites (n), the following modified Stern–Volmer eqn (4) was used.4 [drawing 4] where F0 and F are the same as in eqn (3). The values of Kb and n were determined from intercept and slope, respectively, as log{(F0 − F)/F versus log[compound]} plots.
The thermodynamic parameters such as the change in enthalpy (ΔH) and change in entropy (ΔS) were determined by following the van't Hoff eqn (5):5 [drawing 5] R and T denote the gas constant and absolute temperature, respectively.
The change in free energy (ΔG) for various temperatures was determined by the following eqn (6):6 ΔG = ΔH − TΔS

T1 sequence (P02768 25-609): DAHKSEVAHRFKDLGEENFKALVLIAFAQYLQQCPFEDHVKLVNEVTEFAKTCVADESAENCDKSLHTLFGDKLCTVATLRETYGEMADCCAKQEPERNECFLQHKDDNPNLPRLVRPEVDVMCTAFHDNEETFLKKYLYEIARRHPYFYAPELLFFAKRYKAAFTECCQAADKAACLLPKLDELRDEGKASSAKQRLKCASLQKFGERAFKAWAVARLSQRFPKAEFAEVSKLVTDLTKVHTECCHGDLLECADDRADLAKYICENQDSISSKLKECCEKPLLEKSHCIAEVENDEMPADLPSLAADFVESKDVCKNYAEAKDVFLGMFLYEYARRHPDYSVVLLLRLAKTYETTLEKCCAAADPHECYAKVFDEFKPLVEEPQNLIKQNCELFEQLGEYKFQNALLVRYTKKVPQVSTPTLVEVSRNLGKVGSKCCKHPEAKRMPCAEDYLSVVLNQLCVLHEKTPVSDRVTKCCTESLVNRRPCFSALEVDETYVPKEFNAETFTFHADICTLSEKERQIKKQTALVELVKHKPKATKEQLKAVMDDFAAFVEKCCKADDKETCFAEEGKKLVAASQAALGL

| enhancement in absorbance of HSA at 280 nm [1] | Kd [1] | blue shift of synchronous fluorescence of HSA [2] | K SV (Stern–Volmer quenching constant) ([4]; 298 K) | K q (bimolecular quenching rate constant) ([4]; 298 K) | n (average number of binding sites) ([4]; 298 K) | ΔG of HSA binding ([4]; 298 K) | Kd ([4]; 298 K) | Kd ([4]; 308 K) | K SV (Stern–Volmer quenching constant) ([4]; 318 K) | K q (bimolecular quenching rate constant) ([4]; 318 K) | n (average number of binding sites) ([4]; 318 K) | ΔG of HSA binding ([4]; 318 K) | Kd ([4]; 318 K) | quenching of emission of HSA at 347 nm [4] | ΔH of HSA binding [4] | ΔS of HSA binding [4] | SMILES | IC50 [3] |
| --- | --- | --- | --- | --- | --- | --- | --- | --- | --- | --- | --- | --- | --- | --- | --- | --- | --- | --- |
| 57% | 5.71 µM | about 4 nm | 10.46 10^6 M^−1 | 10.46 10^14 M^−1 s^−1 | 1.32 | -9.27 kJ/M | 0.136 µM | 0.658 µM | 1.27 10^6 M^−1 | 1.27 10^14 M^−1 s^−1 | 1.30 | -8.46 kJ/M | 1.19 µM | 90–95% | -21.32 kJ/M | −40.44 J M^−1 K^−1 | C=CCn1cc(-c2nc3ccccc3s2)c2cc(-c3ccc4c5c(cccc35)C(=O)N(CCO)C4=O)ccc21 [Compound 12, 6-(1-Allyl-3-(benzo[d]thiazol-2-yl)-1H-indol-5-yl)-2-(2-hydroxyethyl)-1H-benzo[de]isoquinoline-1,3(2H)-dione] | 3.81 ± 0.19 µM |
| 51% | 5.32 µM | about 4 nm | 2.58 10^6 M^−1 | 2.58 10^14 M^−1 s^−1 | 1.17 | -8.37 kJ/M | 0.662 µM | 2.78 µM | 0.30 10^6 M^−1 | 0.30 10^14 M^−1 s^−1 | 1.00 | -7.49 kJ/M | 6.67 µM | 90–95% | -21.41 kJ/M | −43.76 J M^−1 K^−1 | C#CCN1C(=O)c2cccc3c(-c4ccc5c(c4)c(-c4nc6ccccc6s4)cn5CC=C)ccc(c23)C1=O [Compound 13, 6-(1-Allyl-3-(benzo[d]thiazol-2-yl)-1H-indol-5-yl)-2-(prop-2-yn-1-yl)-1H-benzo[de]isoquinoline-1,3(2H)-dione] | 3.49 ± 0.12 µM |
